We go through 17 molecules from patent US8668921B2, “Lipase inhibitors” (Suntory Holdings Limited, priority 2004, dated 2014).

A value given as a limit tells only on which side of the number the result lay.

The target of series [1] is T1, porcine pancreatic lipase (Sus scrofa, UniProt P00591).
T1 construct: purchased Sigma
T1 sequence (P00591 1-450): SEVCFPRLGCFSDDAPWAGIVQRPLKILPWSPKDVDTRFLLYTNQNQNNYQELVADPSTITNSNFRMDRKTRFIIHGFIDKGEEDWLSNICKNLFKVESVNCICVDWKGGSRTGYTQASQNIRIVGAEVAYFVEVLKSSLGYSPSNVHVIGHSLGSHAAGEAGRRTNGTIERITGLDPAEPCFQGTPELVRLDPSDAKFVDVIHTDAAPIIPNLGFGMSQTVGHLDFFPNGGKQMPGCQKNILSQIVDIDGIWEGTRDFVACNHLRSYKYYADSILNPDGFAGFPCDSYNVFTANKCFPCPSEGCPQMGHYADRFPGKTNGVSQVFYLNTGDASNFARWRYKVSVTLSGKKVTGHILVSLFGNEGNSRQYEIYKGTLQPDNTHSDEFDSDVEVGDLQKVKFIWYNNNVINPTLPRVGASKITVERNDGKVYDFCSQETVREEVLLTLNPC
Put plainly: Lipase inhibitory activity assay (4-MUO fluorescent substrate). As to conditions: for IC50: porcine pancreatic lipase, 4-MUO substrate, 25° C., 30 minutes, pH 8.0. Type of series: biochemical.
Experimental: A lipase activity assay was performed by using the oleate ester of fluorescent 4-methylumbelliferone (4-MUO) as a substrate to measure the fluorescence of 4-methylumbelliferone produced by reaction.
The buffer used for the assay was 13 mM Tris-HCl (pH 8.0) containing 150 mM NaCl, 1.36 mM CaCl2. The enzyme assay was performed using a 0.1 M solution of the substrate 4-MUO (Sigma) in DMSO diluted 1:1000 in said buffer and a solution of porcine pancreatic lipase (Sigma) prepared at 400 U/ml also in said buffer.
An enzymatic reaction was started by adding 25 μl of the lipase/buffer solution after 50 μl of the 4-MUO/buffer solution and 25 μl of distilled water (or an aqueous solution of each sample) were added and mixed in a 96-well microplate at 25° C. After the reaction was performed for 30 minutes, the reaction was stopped by adding 100 μl of a 0.1 M citrate buffer (pH 4.2) and the fluorescence of 4-methylumbelliferone produced by the reaction (excitation 355 nm, emission 460 nm) was measured using a fluorescence plate reader (Fluoroskan Asent CF from Labsystems).
The inhibitory activity of each test sample was determined as IC50(μM), i.e. the amount of the sample giving 50% inhibition of the activity of the control (distilled water).

The conditions of series [2]: reported in the literature; cited from earlier work.

One may read the IC50 as the midpoint of a concentration-inhibition curve. On to `Oc1cc(O)c2c(c1)OC(c1ccc(O)c(O)c1)C(O)C2` (single isomer, unassigned; (+)) [(+)-catechin (5), (+)-catechin], for which the IC50 in series [1] was over 690000 nM.

The molecule `Oc1cc(O)c2c(c1)O[C@H](c1cc(O)c(O)c(O)c1)[C@@H](O)C2` [(+)-gallocatechin (7), (+)-gallocatechin] registered an IC50 in series [1] of over 163000 nM.

Take `O=C(O[C@@H]1Cc2c(O)cc(O)cc2O[C@@H]1c1ccc(O)c(O)c1)c1cc(O)c(O)c(O)c1` [(−)-epicatechin 3-O-gallate (2), (−)-epicatechin 3-O-gallate]: half-maximal inhibition in series [1] (IC50) required 271 nM. This counts as sub-micromolar. For the molecule `Oc1cc(O)c2c(c1)O[C@H](c1ccc(O)c(O)c1)[C@H](O)C2` [(−)-epicatechin (1), (−)-epicatechin], the IC50 in series [1] is over 21600 nM. Still for that read-out and setting: under `Oc1cc(O)c2c(c1)O[C@H](c1cc(O)c(O)c(O)c1)[C@H](O)C2` [(−)-epigallocatechin (3), (−)-epigallocatechin] stands over 20400 nM; under `O=C(O[C@@H]1Cc2c(O)cc(O)cc2O[C@H]1c1cc(O)c(O)c(O)c1)c1cc(O)c(O)c(O)c1` [(−)-gallocatechin 3-O-gallate (8), (−)-gallocatechin 3-O-gallate], 349 nM. Turning to `OC1(c2ccc(Cl)cc2)c2ccccc2C2=NCCN21` (stereo not drawn) [Mazindol], in series [2], the adverse side effects result is “dry mouth, constipation, stomach discomfort and nausea/vomiting”. Regarding `CCCCCCCCCCC[C@@H](C[C@@H]1OC(=O)[C@H]1CCCCCC)OC(=O)[C@H](CC(C)C)NC=O` [Xenical], the adverse side effects result in series [2] is “fatty stools, increased stool frequency, loose stools, diarrhea and abdominal pain”. In turn, `O=C(OC1Cc2c(O)cc(O)c(C(c3cc(O)c(O)c(O)c3)C(Cc3c(O)cc(O)cc3O)OC(=O)c3cc(O)c(O)c(O)c3)c2OC1c1cc(O)c(O)c(O)c1)c1cc(O)c(O)c(O)c1` (stereo not drawn) [assamicain A (9), assamicain A] had an IC50 in series [1] of 120 nM. In other words, the sub-micromolar range. In the case of `O=C(OC1Cc2c(O)cc(O)c(C(c3cc(O)c(O)c(O)c3)C(Cc3c(O)cc(O)cc3O)OC(=O)c3cc(O)c(O)c(O)c3)c2OC1c1cc(O)c(O)c(O)c1)c1cc(O)c(O)c(O)c1` (stereo not drawn) [assamicain B (10), assamicain B], the IC50 in series [1] was determined as 186 nM. Turning to `O=C1C=C2c3c(cc(O)c4c3O[C@H](c3ccc(O)c(O)c3)[C@@H](O)C4)OC23C[C@]1(O)O[C@H]1Cc2c(O)cc(O)cc2O[C@@H]13` [dehydro-dicatechin A (14), dehydro-dicatechin A], half-maximal inhibition in series [1] (IC50) was put at 3090 nM. On the same count and under the same terms, under `O=C(O[C@@H]1Cc2c(O)cc(O)cc2O[C@@H]1c1cc(O)c(O)c2c(=O)c(O)cc([C@H]3Oc4cc(O)cc(O)c4C[C@H]3O)cc12)c1cc(O)c(O)c(O)c1` [theaflavin 3′-O-gallate (16), theaflavin 3′-O-gallate] stands 112 nM; under `O=c1c(O)cc([C@H]2Oc3cc(O)cc(O)c3C[C@H]2O)cc2c([C@H]3Oc4cc(O)cc(O)c4C[C@H]3O)cc(O)c(O)c12` [theaflavin (15), theaflavin], 106 nM. The molecule `O=C(O[C@@H]1Cc2c(O)cc(O)cc2O[C@@H]1c1cc(O)c(O)c(O)c1-c1c([C@H]2Oc3cc(O)cc(O)c3C[C@H]2OC(=O)c2cc(O)c(O)c(O)c2)cc(O)c(O)c1O)c1cc(O)c(O)c(O)c1` [theasinensin A (11), theasinensin A] had an IC50 in series [1] of 142 nM. Molecule `O=C(O[C@@H]1Cc2c(O)cc(O)cc2O[C@@H]1c1cc(O)c(O)c(O)c1-c1c([C@H]2Oc3cc(O)cc(O)c3C[C@H]2O)cc(O)c(O)c1O)c1cc(O)c(O)c(O)c1` [theasinensin B (12), theasinensin B] yielded an IC50 in series [1] of 276 nM. This IC50 lies about 1.9-fold higher than the previous one. The same measure, in the same setting: under `O=C(O[C@@H]1Cc2c(O)cc(O)cc2O[C@@H]1c1cc(O)c(O)c(O)c1-c1c([C@H]2Oc3cc(O)cc(O)c3C[C@H]2OC(=O)c2cc(O)c(O)c(O)c2)cc(O)c(O)c1O)c1cc(O)c(O)c(O)c1` [theasinensin D (13), theasinensin D] stands 98 nM. In the case of “(−)-epigallocatechin 3-O-gallate [(−)-epigallocatechin 3-O-gallate (4)]”, in series [1] (method of Example 1), the “lipase inhibitory activity (in words)” value is reported as “strongest activity among the major catechins”. In series [1], this molecule returned an IC50 of 284 nM.
